From patent US11548868B2, “Heterocyclic compounds, compositions comprising heterocyclic compound, and methods of use thereof” (JS INNOPHARM (SHANGHAI) LTD, priority 2017, dated 2023)

Columns and labels:
[1] = molecular target: T1, IDO1 in Hela cancer cells (Homo sapiens, UniProt P14902); test: IDO1 Cellular Assay (kynurenine production in IFN-γ stimulated Hela cancer cells); format: cell-based; details: human IFN-γ 50 ng/mL, 48 hours incubation, kynurenine at 490 nm
T1 construct: endogenous in cells; host or cells: Hela cancer cells stimulated with human IFN-γ
T1 sequence (P14902 whole entry): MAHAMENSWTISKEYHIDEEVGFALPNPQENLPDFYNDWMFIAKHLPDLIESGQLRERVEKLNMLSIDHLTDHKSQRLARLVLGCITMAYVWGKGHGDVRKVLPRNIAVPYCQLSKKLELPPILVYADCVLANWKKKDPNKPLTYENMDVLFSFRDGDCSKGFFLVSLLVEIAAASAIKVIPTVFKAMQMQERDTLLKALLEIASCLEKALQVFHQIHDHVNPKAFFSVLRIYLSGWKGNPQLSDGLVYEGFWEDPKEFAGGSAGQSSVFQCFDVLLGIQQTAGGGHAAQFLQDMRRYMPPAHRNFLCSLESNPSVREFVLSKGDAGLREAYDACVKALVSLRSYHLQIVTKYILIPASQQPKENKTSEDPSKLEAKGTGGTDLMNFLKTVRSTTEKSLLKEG
Procedure, shortened: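 HeLa cells stimulated with 50 ng/mL IFN-γ (final) and treated 48 h with compound (0–25 μM final, 0.25% DMSO). Supernatant kynurenine measured after TCA hydrolysis and p-dimethylaminobenzaldehyde reaction at 490 nm; inhibition vs DMSO control, IC50 by non-linear regression.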

[2] = molecular target: T2, TDO2 in A172 cancer cells (Homo sapiens, UniProt P48775); test: TDO2 Cellular Assay (kynurenine production in A172 cancer cells); format: cell-based; details: L-Trp 1 mM, 24 hours incubation, kynurenine at 490 nm
T2 construct: endogenous in cells; host or cells: A172 cancer cells
T2 sequence (P48775 whole entry): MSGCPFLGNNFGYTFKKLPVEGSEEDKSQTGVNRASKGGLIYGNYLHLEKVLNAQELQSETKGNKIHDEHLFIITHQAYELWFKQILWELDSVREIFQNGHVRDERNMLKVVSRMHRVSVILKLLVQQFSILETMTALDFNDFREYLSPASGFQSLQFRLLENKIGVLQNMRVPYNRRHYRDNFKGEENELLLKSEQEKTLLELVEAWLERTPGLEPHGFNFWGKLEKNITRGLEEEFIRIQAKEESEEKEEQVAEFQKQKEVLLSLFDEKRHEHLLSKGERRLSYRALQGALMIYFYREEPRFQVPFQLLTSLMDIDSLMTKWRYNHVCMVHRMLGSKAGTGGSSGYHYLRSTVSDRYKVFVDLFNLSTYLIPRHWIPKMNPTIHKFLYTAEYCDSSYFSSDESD
Procedure, shortened: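 A172 cells seeded overnight, then given 1 mM L-Trp and test compound (0–25 μM, 0.25% DMSO) for 24 h at 37 °C. Supernatant treated with TCA at 50 °C to convert N-formylkynurenine, kynurenine detected with p-dimethylaminobenzaldehyde at 490 nm; IC50 by non-linear regression of inhibition versus DMSO control.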

IC50 [1]	IC50 [2]	Structure (SMILES)
500 to 1000 nM	≤ 500 nM	Cc1cc(C(=O)N[C@H]2[C@@H]3C[C@@](O)(c4cc(Cl)cc5[nH]ncc45)C[C@@H]32)no1 [Example 154, N-((1R,3r,5S,6r)-3-(6-chloro-1H-indazol-4-yl)-3-hydroxybicyclo[3.1.0]hexan-6-yl)-5-methylisoxazole-3-carboxamide]
1000 to 5000 nM	≤ 500 nM	Cn1cc(C(=O)N[C@H]2[C@@H]3C[C@@](O)(c4cc(Cl)cc5[nH]ncc45)C[C@@H]32)cn1 [Example 155, N-((1R,3r,5S,6r)-3-(6-chloro-1H-indazol-4-yl)-3-hydroxybicyclo[3.1.0]hexan-6-yl)-1-methyl-1H-pyrazole-4-carboxamide]
≤ 500 nM	≤ 500 nM	O=C(N[C@H]1[C@@H]2C[C@@](O)(c3cc(Cl)cc4[nH]ncc34)C[C@@H]21)c1ccnc(C(F)(F)F)c1 [Example 156, N-((1R,3r,5S,6r)-3-(6-chloro-1H-indazol-4-yl)-3-hydroxybicyclo[3.1.0]hexan-6-yl)-2-(trifluoromethyl)isonicotinamide]
> 5000 nM	≤ 500 nM	NC(=O)c1cccc(C(=O)N[C@H]2[C@@H]3C[C@@](O)(c4cc(Cl)cc5[nH]ncc45)C[C@@H]32)c1 [Example 157, N1-((1R,3r,5S,6r)-3-(6-chloro-1H-indazol-4-yl)-3-hydroxybicyclo[3.1.0]hexan-6-yl)isophthalamide]
> 5000 nM	1000 to 5000 nM	O=C(N[C@H]1[C@@H]2C[C@@](O)(c3cc(Cl)cc4[nH]ncc34)C[C@@H]21)c1cnoc1 [Example 158, N-((1R,3r,5S,6r)-3-(6-chloro-1H-indazol-4-yl)-3-hydroxybicyclo[3.1.0]hexan-6-yl)isoxazole-4-carboxamide]
> 5000 nM	≤ 500 nM	O=C(N[C@H]1[C@@H]2C[C@@](O)(c3cc(Cl)cc4[nH]ncc34)C[C@@H]21)c1cnon1 [Example 159, N-((1R,3r,5S,6r)-3-(6-chloro-1H-indazol-4-yl)-3-hydroxybicyclo[3.1.0]hexan-6-yl)-1,2,5-oxadiazole-3-carboxamide]
1000 to 5000 nM	≤ 500 nM	O=S(=O)(NC1CC1)N[C@H]1[C@@H]2C[C@@](O)(c3cc(Cl)cc4[nH]ncc34)C[C@@H]21 [Example 160, N′-cyclopropyl-N-((1R,3r,5S,6r)-3-(6-chloro-1H-indazol-4-yl)-3-hydroxybicyclo[3.1.0]hexan-6-yl)sulfuric diamide]
≤ 500 nM	≤ 500 nM	O=C(N[C@H]1[C@@H]2C[C@@](O)(c3cc(Cl)cc4[nH]ncc34)C[C@@H]21)c1ccnc(OC(F)(F)F)c1 [Example 161, N-((1R,3r,5S,6r)-3-(6-chloro-1H-indazol-4-yl)-3-hydroxybicyclo[3.1.0]hexan-6-yl)-2-(trifluoromethoxy)isonicotinamide]
≤ 500 nM	≤ 500 nM	CNS(=O)(=O)N[C@H]1[C@@H]2C[C@@](O)(c3cc(C(F)(F)F)cc4[nH]ncc34)C[C@@H]21 [Example 162, N′-methyl-N-((1R,3r,5S,6r)-3-hydroxy-3-(6-(trifluoromethyl)-1H-indazol-4-yl)bicyclo[3.1.0]hexan-6-yl)sulfuric diamide]
≤ 500 nM	≤ 500 nM	O=C(N[C@H]1[C@@H]2C[C@@](O)(c3cc(C(F)(F)F)cc4[nH]ncc34)C[C@@H]21)c1cccc(Cl)c1 [Example 163, 3-chloro-N-((1R,3r,5S,6r)-3-hydroxy-3-(6-(trifluoromethyl)-1H-indazol-4-yl)bicyclo[3.1.0]hexan-6-yl)benzamide]
> 5000 nM	≤ 500 nM	CC(=O)N[C@H]1[C@@H]2C[C@@](O)(c3cc(C(F)(F)F)cc4[nH]ncc34)C[C@@H]21 [Example 164, N-((1R,3r,5S,6r)-3-hydroxy-3-(6-(trifluoromethyl)-1H-indazol-4-yl)bicyclo[3.1.0]hexan-6-yl)acetamide]
1000 to 5000 nM	≤ 500 nM	O=C(Nc1ccc(Cl)cc1)N1C[C@@H]2C[C@@](O)(c3cc(Cl)cc4[nH]ncc34)C[C@@H]2C1 [Example 165, (3aR,5r,6aS)-5-(6-chloro-1H-indazol-4-yl)-N-(4-chlorophenyl)-5-hydroxyhexahydrocyclopenta[c]pyrrole-2(1H)-carboxamide]
500 to 1000 nM	≤ 500 nM	O=C(N[C@H]1C[C@@H]2C[C@@](O)(c3cc(Cl)cc4[nH]ncc34)C[C@@H]2C1)c1cccc(Cl)c1 [Example 166, 3-chloro-N-((2r,3aR,5r,6aS)-5-(6-chloro-1H-indazol-4-yl)-5-hydroxyoctahydropentalen-2-yl)benzamide]
> 5000 nM	≤ 500 nM	CC(=O)N[C@H]1C[C@@H]2C[C@@](O)(c3cc(Cl)cc4[nH]ncc34)C[C@@H]2C1 [Example 167, N-((2r,3aR,5r,6aS)-5-(6-chloro-1H-indazol-4-yl)-5-hydroxyoctahydropentalen-2-yl)acetamide]
≤ 500 nM	≤ 500 nM	O=C(N[C@H]1[C@@H]2C[C@@](O)(c3cc(Cl)cc4[nH]ncc34)C[C@@H]21)c1ccc(F)c(F)c1 [Example 168, N-((1R,3r,5S,6r)-3-(6-chloro-1H-indazol-4-yl)-3-hydroxybicyclo[3.1.0]hexan-6-yl)-3,4-difluorobenzamide]
1000 to 5000 nM	≤ 500 nM	O=C(N[C@H]1[C@@H]2C[C@@](O)(c3cc(Cl)cc4[nH]ncc34)C[C@@H]21)c1ccnc2ccccc12 [Example 169, N-((1R,3r,5S,6r)-3-(6-chloro-1H-indazol-4-yl)-3-hydroxybicyclo[3.1.0]hexan-6-yl)quinoline-4-carboxamide]
≤ 500 nM	≤ 500 nM	O=C(N[C@H]1[C@@H]2C[C@@](O)(c3cc(Cl)cc4[nH]ncc34)C[C@@H]21)c1cncc(Br)c1 [Example 170, 5-bromo-N-((1R,3r,5S,6r)-3-(6-chloro-1H-indazol-4-yl)-3-hydroxybicyclo[3.1.0]hexan-6-yl)nicotinamide]
500 to 1000 nM	≤ 500 nM	O=C(N[C@H]1[C@@H]2C[C@@](O)(c3cc(Cl)cc4[nH]ncc34)C[C@@H]21)c1cccc(-c2ccccc2)c1 [Example 171, N-((1R,3r,5S,6r)-3-(6-chloro-1H-indazol-4-yl)-3-hydroxybicyclo[3.1.0]hexan-6-yl)-[1,1′-biphenyl]-3-carboxamide]
≤ 500 nM	≤ 500 nM	O=C(N[C@H]1[C@@H]2C[C@@](O)(c3cc(Cl)cc4[nH]ncc34)C[C@@H]21)c1ccc(F)c(C(F)(F)F)c1 [Example 172, N-((1R,3r,5S,6r)-3-(6-chloro-1H-indazol-4-yl)-3-hydroxybicyclo[3.1.0]hexan-6-yl)-4-fluoro-3-(trifluoromethyl)benzamide]
500 to 1000 nM	≤ 500 nM	O=C(N[C@H]1[C@@H]2C[C@@](O)(c3cc(Cl)cc4[nH]ncc34)C[C@@H]21)c1cncc(F)c1 [Example 173, N-((1R,3r,5S,6r)-3-(6-chloro-1H-indazol-4-yl)-3-hydroxybicyclo[3.1.0]hexan-6-yl)-5-fluoronicotinamide]
≤ 500 nM	≤ 500 nM	C#Cc1cccc(C(=O)N[C@H]2[C@@H]3C[C@@](O)(c4cc(Cl)cc5[nH]ncc45)C[C@@H]32)c1 [Example 174, N-((1R,3r,5S,6r)-3-(6-chloro-1H-indazol-4-yl)-3-hydroxybicyclo[3.1.0]hexan-6-yl)-3-ethynylbenzamide]
